The values that follow come from ChEMBL document CHEMBL4325896, “The potential role of tubeimosides in cancer prevention and treatment” (Eur J Med Chem, 2019).

Data set [1] concerns NCI-H460. The data set can be described thus: Antiproliferative activity against human NCI-H460 cells after 24 hrs by WST-1 assay. To be noted: NCI-H460, 24 h. The data set is classed as functional, cell-based.
A short description of data set [2]: Antiproliferative activity against mouse eEND.2 cells after 24 hrs by WST-1 assay. The data set is classed as cell-based.
Data set [3] in a line: Elimination half life in Sprague-Dawley rat at 5 mg/kg, iv by LC-MS analysis. Format: ADME, organism-based. Conditions: in vivo.
Data set [4] in a line: Volume of distribution at terminal phase in Sprague-Dawley rat at 5 mg/kg, iv by LC-MS analysis. Format: ADME, organism-based. To be noted: in vivo.
Data set [5] in a line: Oral bioavailability in Sprague-Dawley rat at 50 mg/kg by LC-MS analysis. The data set is classed as ADME, organism-based. To be noted: in vivo.
Data set [6] is described as follows: Cmax in Sprague-Dawley rat at 50 mg/kg, po by LC-MS analysis. The data set is classed as ADME, organism-based. The arrangement: dose 50 mg/kg, route oral. Conditions: in vivo.
Data set [7] is described as follows: Tmax in Sprague-Dawley rat at 50 mg/kg, po by LC-MS analysis. The data set is classed as ADME, organism-based. To be noted: in vivo.
Data set [8] is described as follows: Cmax in Sprague-Dawley rat at 50 mg/kg, po by HPLC-DAD-IT-TOF-MS analysis. Format: ADME, organism-based. The arrangement: dose 50 mg/kg, route oral. To be noted: in vivo.
A short description of data set [9]: Tmax in Sprague-Dawley rat at 50 mg/kg, po by HPLC-DAD-IT-TOF-MS analysis. The data set is classed as ADME, organism-based. Conditions: in vivo.
Data set [10] can be described thus: Half life in Sprague-Dawley rat at 50 mg/kg, po by HPLC-DAD-IT-TOF-MS analysis. Conditions: in vivo. Format: ADME, organism-based.
A short description of data set [11]: AUC (0 to 24 hrs) in Sprague-Dawley rat at 50 mg/kg, po by HPLC-DAD-IT-TOF-MS analysis. Conditions: in vivo. The data set is classed as ADME, organism-based. The arrangement: dose 50 mg/kg, time < 24 hr, route oral.
A short description of data set [12]: AUC (0 to infinity) in Sprague-Dawley rat at 50 mg/kg, po by HPLC-DAD-IT-TOF-MS analysis. The arrangement: dose 50 mg/kg, time infinity, route oral. Conditions: in vivo. Format: ADME, organism-based.
Data set [13] can be described thus: MRT (0 to 24 hrs) in Sprague-Dawley rat at 50 mg/kg, po by HPLC-DAD-IT-TOF-MS analysis. Format: ADME, organism-based. To be noted: in vivo.
Data set [14] is described as follows: MRT (0 to infinity) in Sprague-Dawley rat at 50 mg/kg, po by HPLC-DAD-IT-TOF-MS analysis. Format: ADME, organism-based. To be noted: in vivo.
Data set [15] can be described thus: Elimination half life in ICR mouse at 20 mg/kg, po by UPLC-MS/MS analysis. Conditions: in vivo, read-out: beta t1/2 (converted). Format: ADME, organism-based.
A short description of data set [16]: Elimination half life in ICR mouse at 5 mg/kg, iv by UPLC-MS/MS analysis. Conditions: in vivo, read-out: beta t1/2 (converted). Format: ADME, organism-based.
Data set [17] is described as follows: Oral bioavailability in ICR mouse at 20 mg/kg by UPLC-MS/MS analysis. The data set is classed as ADME, organism-based. To be noted: in vivo.
Data set [18] concerns DU-145. The experiment in a line: Antiproliferative activity against human DU145 cells after 24 hrs by MTT assay. The data set is classed as functional, cell-based. Conditions: DU-145, 24 h.
In data set [19] the test system is PC-3. The experiment in a line: Antiproliferative activity against human PC3 cells after 24 hrs by MTT assay. The data set is classed as functional, cell-based. Conditions: PC-3, 24 h.
Data set [20] has as its system HeLa. The experiment in a line: Cytotoxicity against human HeLa cells after 24 hrs by MTT assay. Format: functional, cell-based.
The subject of data set [21] is NCI-H460. The experiment in a line: Antiproliferative activity against human NCI-H460 cells after 9 hrs by MTT assay. Format: functional, cell-based. To be noted: NCI-H460, 9 h.
Data set [22] has as its system A549. The data set can be described thus: Antiproliferative activity against human A549 cells after 72 hrs by MTS assay. Format: functional, cell-based. To be noted: A549, 72 h.
Data set [23] deals with PC-9. The experiment in a line: Antiproliferative activity against human PC9 cells after 72 hrs by MTS assay. Format: functional, cell-based. Conditions: PC-9, 72 h.
Data set [24] in a line: Antiproliferative activity against human PGCL3 cells after 24 hrs by MTT assay. The data set is classed as functional, cell-based.
Data set [25] in a line: Antiproliferative activity against human PGCL3 cells after 48 hrs by MTT assay. The data set is classed as functional, cell-based.
Data set [26] in a line: Antiproliferative activity against human PGCL3 cells after 72 hrs by MTT assay. Format: functional, cell-based.
For data set [27], the system named is HeLa. The experiment in a line: Antiproliferative activity against human HeLa cells after 24 hrs by MTT assay. The data set is classed as functional, cell-based.
Data set [28] concerns HeLa. The data set can be described thus: Antiproliferative activity against human HeLa cells after 48 hrs by MTT assay. The data set is classed as functional, cell-based.
Data set [29] deals with HeLa. The experiment in a line: Antiproliferative activity against human HeLa cells after 72 hrs by MTT assay. Format: functional, cell-based.
For data set [30], the system named is HepG2. The experiment in a line: Antiproliferative activity against human HepG2 cells after 24 hrs by MTT assay. The data set is classed as functional, cell-based. Conditions: HepG2, 24 h.
Data set [31] deals with SK-OV-3. The experiment in a line: Antiproliferative activity against human SKOV3 cells after 24 hrs by MTT assay. Format: functional, cell-based. Conditions: SK-OV-3, 24 h.
Data set [32] concerns T-24. The data set can be described thus: Antiproliferative activity against human T24 cells after 24 hrs by MTT assay. The data set is classed as functional, cell-based. Conditions: T-24, 24 h.
Data set [33] deals with ECa-109 cell line. The experiment in a line: Antiproliferative activity against human EC109 cells after 24 hrs by MTT assay. The data set is classed as functional, cell-based. Conditions: ECa-109, 24 h.
For data set [34], the system named is ECa-109 cell line. The data set can be described thus: Antiproliferative activity against human EC109 cells after 48 hrs by MTT assay. The data set is classed as functional, cell-based. To be noted: ECa-109, 48 h.
For data set [35], the system named is JEG-3. The experiment in a line: Antiproliferative activity against human JEG3 cells after 24 hrs by MTT assay. The data set is classed as functional, cell-based. Conditions: JEG-3, 24 h.
The subject of data set [36] is HUVEC. The experiment in a line: Antiproliferative activity against HUVEC after 24 hrs. Format: functional, cell-based. Conditions: Homo sapiens.
The test system of data set [37] is HUVEC. The experiment in a line: Antiproliferative activity against HUVEC after 48 hrs. Format: functional, cell-based. Conditions: Homo sapiens.
Data set [38] relates to HUVEC. The experiment in a line: Antiproliferative activity against HUVEC after 72 hrs. The data set is classed as functional, cell-based. Conditions: Homo sapiens.
Data set [39] has as its system NCI-H1299. The data set can be described thus: Antiproliferative activity against human NCI-H1299 cells after 48 hrs by CCK-8 assay. Format: functional, cell-based. Conditions: NCI-H1299, 48 h.
A short description of data set [40]: Antiproliferative activity against human A2780DDP cells after 12 hrs. The data set is classed as functional, cell-based.
Data set [41] is described as follows: Antiproliferative activity against human A2780DDP cells after 24 hrs. Format: functional, cell-based.
A short description of data set [42]: Antiproliferative activity against human A2780DDP cells after 48 hrs. The data set is classed as functional, cell-based.
Data set [43] relates to HUVEC. The data set can be described thus: Antimigratory activity against HUVEC at 20 umol/L after 24 hrs relative to control. Format: functional, Homo sapiens.
Data set [44] is described as follows: Toxicity in ip dosed ICR mouse. Format: organism-based. Conditions: in vivo.
Data set [45] deals with HepG2. The experiment in a line: Antiproliferative activity against human HepG2 cells. The data set is classed as functional, cell-based.

Values after ≈ are worked out from the molar mass of the structure shown.

On to `C[C@@H]1O[C@H]2O[C@H]3[C@@H](OC[C@H](O)[C@@H]3O)OC(=O)[C@]34CCC(C)(C)C[C@H]3C3=CC[C@@H]5[C@@]6(C)C[C@H](O)[C@H](O[C@@H]7O[C@H](CO)[C@@H](O)[C@H](O)[C@H]7O[C@@H]7OC[C@H](OC(=O)C[C@](C)(O)CC(=O)O[C@@H]1[C@@H](O[C@@H]1OC[C@@H](O)[C@H](O)[C@H]1O)[C@H]2O)[C@H](O)[C@H]7O)[C@@](C)(CO)[C@@H]6CC[C@@]5(C)[C@]3(C)CC4`, for which the concentration for half-maximal inhibition (IC50) in data set [1] came out at 23.3 µM; in data set [2] it was 12 µM; in [18], 10 µM; in data set [19] it was 20 µM; in [20], 25 µM; in data set [21], 20 µM. In addition, the IC50 is 12.3 µM in data set [22]; 10.2 µM in data set [23]; 15.7 µM in [24]; 14.2 µM in data set [25]; 13.3 µM in data set [26]; 34.8 µM in data set [27]. In addition, the half-inhibitory concentration (IC50) in [28] was 27.1 µM; in data set [29], 17.1 µM; in [30] it was 15.5 to 20 µM; in data set [31] it was 16 µM; in data set [32], 20 µM; in data set [33], 45 µM. Further, the IC50 was determined as 35 µM in [34]; 8.5 µM in data set [35]; 24.2 µM in [36]; 21.4 µM in [37]; 17.9 µM in [38]; 10 µM in data set [39]. Moreover, the IC50 was 3 µM in data set [40], 6 µM in data set [41] and 12 µM in data set [42]. For the same compound, the “beta t1/2” value in data set [3] was 6.7 h. In addition, the Vbeta in [4] was determined as 0.106 L/kg. In addition, the bioavailability in [5] was found to be 0.23%; in data set [17] it was 1%. Also, the Cmax in data set [6] worked out at 675 ng/mL; in data set [8], 1342 ng/mL. The Tmax in data set [7] worked out at 2.75 h; in data set [9], 2.85 h. The compound also registered a t1/2 in [10] of 4.6 h. In data set [11], the area under the curve AUC(0-t) at 24 h was found to be 8800 ng·h/mL. For the same compound, in data set [12], the AUC came out at 9900 ng·h/mL. This compound also yielded a mean residence time (MRT last) in data set [13] of 7.02 h. The compound also returned an MRT inf in [14] of 9.16 h. Also, the half-life is 2.3 h in data set [15] and 6.8 h in data set [16]. Also, the Activity in data set [43] was determined as 58.4%. For the same compound, in data set [44], the median lethal dose (LD50) came to 18.7 mg/kg.

`C[C@@H]1O[C@H]2O[C@H]3[C@@H](OC[C@H](O)[C@@H]3O)OC(=O)[C@]34CCC(C)(C)C[C@H]3C3=CC[C@@H]5[C@@]6(C)C[C@H](O)[C@H](O[C@@H]7O[C@H](CO)[C@@H](O)[C@H](O)[C@H]7O[C@@H]7OC[C@H](OC(=O)C[C@](C)(O)CC(=O)O[C@@H]1[C@@H](O[C@@H]1OC[C@@H](O)[C@H](O)[C@H]1O)[C@H]2O)[C@H](O)[C@H]7O)[C@@](C)(CO)[C@@H]6CC[C@@]5(C)[C@]3(C)C[C@H]4O`: half-maximal inhibition in data set [45] (IC50) was put at 4.05 µg/mL (≈ 3.03 µM). In data set [44], this compound displayed an LD50 of 21 mg/kg.

In turn, `C[C@@H]1O[C@H]2O[C@H]3[C@@H](OC[C@H](O)[C@@H]3O)OC(=O)[C@]34CCC(C)(C)C[C@H]3C3=CC[C@@H]5[C@@]6(C)C[C@H](O)[C@H](O[C@@H]7O[C@H](CO)[C@@H](O)[C@H](O)[C@H]7O[C@@H]7O[C@H](COC(=O)C[C@](C)(O)CC(=O)O[C@@H]1[C@@H](O[C@@H]1OC[C@@H](O)[C@H](O)[C@H]1O)[C@H]2O)[C@@H](O)[C@H](O)[C@H]7O)[C@@](C)(CO)[C@@H]6CC[C@@]5(C)[C@]3(C)C[C@H]4O` yielded an LD50 in [44] of 15 mg/kg.
